In paper PMC8119212 (JCI Insight, 2021):
Entries after “also recorded” stand apart in the source; their conditions may differ. Each block holds one compound with its values, some of them ahead of it.

Tests used:
[1] = target: ALK2 (WT) GS and kinase domain (Homo sapiens, UniProt Q04771); assay: DSF thermal shift, wild-type ALK2; assay type: binding
[2] = test system: ACVR1^Q207D-transgenic mouse (CAG-Z-eGFP-caALK2-Tg); assay: ACVR1^Q207D-Tg mouse model of heterotopic ossification; details: for mobility (passive range of motion): 6 mg/kg intraperitoneally twice daily, not shown
Source text: In these animals, activation of the ACVR1^Q207D transgene and associated GFP reporter is mediated by a single intramuscular injection of Adenovirus expressing Cre recombinase (Ad.Cre) in the left hindlimb on P7. This induces the expression of the human ACVR1^Q207D transgene, as well as muscle necrosis and inflammation, which together result in the formation of heterotopic bone lesions within 7–10 days following Ad.Cre injection ([16]). This model is believed to recapitulate aspects of clinical HO and FOP, in which muscle injury and inflammation potentiate the formation of heterotopic bone in soft tissues.
(D) Representative hindlimb scoring system. All range of motion scoring was performed by 2 separate operators who were blinded to the treatment condition of the animal.
Mice were maintained in accordance with IACUC guidelines under approved experimental protocols. Cre-inducible ACVR1^Q207D (CAG-Z-eGFP-caACVR1-Tg) transgenic mice were a gift from Yuji Michina (University of Michigan, Ann Arbor, Michigan, USA) as previously described ([31]). Acvr1^[R206H]FlEx/+ mice were generated as previously described ([13]). Heterotopic bone formation in these mice was introduced via single retro-popliteal injection of adenoviral Cre-recombinase at 1 × 10^8 PFU at P7. […] Bone formation as a function of a loss of passive range of motion, via dorsiflexion of the left ankle joint was assessed daily. Scores were assessed by 2 independent observers blinded to genotype and treatment. […] To monitor the progression of HO during the in vivo studies, x-ray radiographs were also imaged at various time points. Mice were anesthetized using ketamine at 100 mg/kg and imaged nonterminally in the prone position with tibial lateralization and hip abduction, allowing for reproducible positioning. Radiographs were obtained using 30-second scans and 50 kV exposures (MS FX In Vivo Pro: Carestream Imaging). […] After reconstruction, regions of interest were chosen and exported into DICOM format, and analyzed by Osirix analysis software. Fixed soft tissues and bone were stained with alizarin red and Alcian blue as previously described ([62]).

[3] = target: T1, recombinant ALK3 kinase domain (Homo sapiens, UniProt P36894); assay: LANCE Ultra TR-FRET kinase assay, ALK3; assay type: biochemical; details: 10 nM kinase, 50 μM peptide substrate, 10 μM ATP
T1 construct: purified recombinant ALK1-6 kinase domains; purchased Carna Bioscience 09-134
Source text: (§1) Data shown are plotted as mean ± SD. (n = 3 independent replicates). […] (n = 3 replicates). […] Data shown are plotted as mean ± SD. (n ≥ 3 independent replicates).
(§2) Recombinant ALK1 was obtained from Life Technology (catalog PV4883). Recombinant ALK2 to ALK6 were purchased from Carna Bioscience (catalog 09-134). A LANCE Ultra TR-FRET kinase assay was used for measurements of enzyme activities that included a ULight-labeled (Thr-1342) peptide substrate (catalog TRF0130-M, PerkinElmer) and a Europium-labeled anti-phospho peptide antibody (catalog TRF0218-M). The kinase reaction was carried out in a buffer containing 10 mM MgCl2, 3 mM MnCl2, 0.005% Tween-20, 2 mM DTT, and 50 mM HEPES, pH 7.0. The details of the enzyme assays will be reported in a separate paper (our unpublished observations). Briefly, 2.5 μL/well kinase protein (10 nM final) was dispensed to a white solid 1536-well plate followed by addition of 23 nL/well compound diluted in DMSO using a Pin-tool station (Wako-Kalypsis). After a 10-minute incubation at room temperature, 2.5 μL/well substrate solution (50 μM peptide and 10 μM ATP, final) was added, and the assay plate was incubated for 60 minutes at room temperature. […] The signals of time-resolved fluorescence resonance energy transfer (TR-FRET) assay were measured in an Envision plate reader (PerkinElmer) with a TR-FRET mode (Ex = 320, Em1 = 665, and Em2 = 615 nm).

LYN = LYN (Homo sapiens, UniProt P07948); assay: Caliper kinase profiling (Nanosyn), LYN; assay type: biochemical
[4] = test system: TGF-β–dependent phosphorylation of SMAD2; details: C2C12 cells; Western blot
[5] = target: T2, recombinant ALK6 kinase domain (Homo sapiens, UniProt O00238); assay: LANCE Ultra TR-FRET kinase assay, ALK6; assay type: biochemical; details: 10 nM kinase, 50 μM peptide substrate, 10 μM ATP
T2 construct: purified recombinant ALK1-6 kinase domains; purchased Carna Bioscience 09-134
Source text: as §1, §2

HCK = HCK (Homo sapiens, UniProt P08631); assay: Caliper kinase profiling (Nanosyn), HCK; assay type: biochemical
zebrafish embryos = assay: Zebrafish embryo dorsalization; assay type: in vivo; details: incubation starting at 0.5 hours after fertilization
Experimental: Dorsoventral axis specification during embryogenesis is regulated by the activity of BMP signaling agonists and antagonists ([30]).
Zebrafish embryos were treated with varying inhibitor concentrations from less than or equal to 0.5 hours after fertilization. Inhibitor stocks (20 mM) were diluted in fish water from DMSO. Embryos were scored according to Mullins et al. ([61]).

activin A signaling = assay: cells; details: Homo sapiens, MDA-MB-231
Experimental: (§3) Reactions contained 10 nM kinase, 50 μM peptide substrate, and 10 μM ATP. Data shown are plotted as mean ± SD. (n = 3 independent replicates). […] Data shown are representative of more than 3 independent experiments, with data plotted as mean ±SEM. (n = 3 replicates). […] Data shown are plotted as mean ± SD. (n ≥ 3 independent replicates).
(§4) For subsequent investigations of ligand-dependent receptor signaling we used MDA-MB-231 cells stably expressing either the BRE-Luc or CAGA-Luc construct.
(§5) MDA-MB-231 cells stably expressing BRE-Luc or CAGA-Luc were generously provided by Caroline Hill (Francis Crick Institute). […] LUC activity was measured using the Promega Dual LUC Reporter Assay system and percentage activity determined compared with cells treated with growth factor and no inhibitor. Growth factors (Peprotech) were used at the following concentrations: 500 ng/mL BMP2, 10 ng/mL BMP4, 500 ng/mL BMP6, 500 ng/mL BMP7, 4 ng/mL TGF-β, and 200 ng/mL activin A. Experiments were repeated at least 3 times and plotted as mean ± SD.

BMP2 signaling = assay: cells; details: Homo sapiens, MDA-MB-231
Experimental: as §3, §4, §5

BMP6 signaling = assay: cells; details: Homo sapiens, MDA-MB-231
Experimental: as §3, §4, §5

BMP7 signaling = assay: cells; details: Homo sapiens, MDA-MB-231
Experimental: as §3, §4, §5

BMP4 signaling = assay: cells; details: Homo sapiens, MDA-MB-231
Experimental: as §3, §4, §5

RIPK2 = RIPK2 (Homo sapiens, UniProt O43353); assay: Caliper kinase profiling (Nanosyn), RIPK2; assay type: biochemical
[6] = target: T3, recombinant ALK1 kinase domain (Homo sapiens, UniProt P37023); assay: LANCE Ultra TR-FRET kinase assay, ALK1; assay type: biochemical; details: 10 nM kinase, 50 μM peptide substrate, 10 μM ATP
T3 construct: purified recombinant ALK1-6 kinase domains; purchased Life Technology PV4883
Source text: as §1, §2

[7] = target: T4, recombinant ALK4 kinase domain (Homo sapiens, UniProt P36896); assay: LANCE Ultra TR-FRET kinase assay, ALK4; assay type: biochemical; details: 10 nM kinase, 50 μM peptide substrate, 10 μM ATP
T4 construct: purified recombinant ALK1-6 kinase domains; purchased Carna Bioscience 09-134

[8] = target: T5, recombinant ALK5 kinase domain (Homo sapiens, UniProt P36897); assay: LANCE Ultra TR-FRET kinase assay, ALK5; assay type: biochemical; details: 10 nM kinase, 50 μM peptide substrate, 10 μM ATP
T5 construct: purified recombinant ALK1-6 kinase domains; purchased Carna Bioscience 09-134

[9] = cited from earlier work
HEK293 cells = details: human
Experimental: (§6) Inhibition of the BMP receptors caALK1, caALK2, and caALK3 was assessed via the activity of a BMP-response element LUC reporter (BRE-Luc) stably expressed in the C2C12 cell line, whereas the activin (caALK4) and TGF-β (caALK5) receptors were profiled via a CAGA-Luc reporter construct stably expressed in HEK293 cells (Figure 2B). […] Cell viability was assayed with an MTT (3-[4,5-dimethylthiazol-2-yl]-2,5-diphenyl tetrazolium bromide) colorimetric assay (Promega) per the manufacturer’s instructions.
(§7) lines was determined using the MTT cell viability assay . Data were plotted as mean + S.E.M. and
(§8) (1 picture or pasted object on this page, not shown here)

C2C12 cells = details: mouse
Experimental: as §6, §7, §8

[10] = test system: BMP7-induced phosphorylation of SMAD1/5; assay: Western blot, BMP7-induced phospho-SMAD1/5 in C2C12 cells; details: 100 nM saracatinib
TGF-β signaling = assay: cells; details: Homo sapiens, MDA-MB-231
TNIK = TNIK (Homo sapiens, UniProt Q9UKE5); assay: Caliper kinase profiling (Nanosyn), TNIK; assay type: biochemical
ARG (ABL2) = ARG (ABL2) (Homo sapiens, UniProt P42684); assay: Caliper kinase profiling (Nanosyn), ARG; assay type: biochemical
Chain of ARG (ABL2) (P42684 whole entry): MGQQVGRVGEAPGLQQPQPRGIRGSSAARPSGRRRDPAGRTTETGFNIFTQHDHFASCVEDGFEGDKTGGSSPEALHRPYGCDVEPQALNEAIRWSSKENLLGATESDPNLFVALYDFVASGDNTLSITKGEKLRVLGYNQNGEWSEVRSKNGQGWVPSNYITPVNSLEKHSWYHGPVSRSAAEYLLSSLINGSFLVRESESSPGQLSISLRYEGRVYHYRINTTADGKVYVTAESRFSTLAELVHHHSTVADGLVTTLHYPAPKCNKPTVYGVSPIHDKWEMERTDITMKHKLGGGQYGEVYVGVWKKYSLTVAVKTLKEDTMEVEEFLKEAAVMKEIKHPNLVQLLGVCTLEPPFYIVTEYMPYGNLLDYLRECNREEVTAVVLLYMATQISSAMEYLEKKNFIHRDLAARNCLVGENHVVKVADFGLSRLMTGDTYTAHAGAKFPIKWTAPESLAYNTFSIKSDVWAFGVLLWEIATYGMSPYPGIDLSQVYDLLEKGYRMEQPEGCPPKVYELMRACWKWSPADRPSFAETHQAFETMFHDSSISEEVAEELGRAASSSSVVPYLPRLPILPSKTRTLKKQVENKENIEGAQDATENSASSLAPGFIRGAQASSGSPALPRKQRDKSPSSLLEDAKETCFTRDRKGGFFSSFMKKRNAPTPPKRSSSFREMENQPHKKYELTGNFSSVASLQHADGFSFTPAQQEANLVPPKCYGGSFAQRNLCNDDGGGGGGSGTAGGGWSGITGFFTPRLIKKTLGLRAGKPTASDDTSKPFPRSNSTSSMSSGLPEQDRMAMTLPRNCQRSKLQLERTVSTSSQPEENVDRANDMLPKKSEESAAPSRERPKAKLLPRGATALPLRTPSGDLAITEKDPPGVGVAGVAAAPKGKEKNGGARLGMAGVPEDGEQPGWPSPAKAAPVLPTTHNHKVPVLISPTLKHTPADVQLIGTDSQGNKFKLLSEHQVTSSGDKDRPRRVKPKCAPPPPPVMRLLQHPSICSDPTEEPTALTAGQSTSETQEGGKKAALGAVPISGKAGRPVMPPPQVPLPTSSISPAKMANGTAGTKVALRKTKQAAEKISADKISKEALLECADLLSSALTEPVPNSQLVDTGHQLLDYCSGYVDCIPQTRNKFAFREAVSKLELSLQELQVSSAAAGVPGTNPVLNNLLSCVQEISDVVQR

Chain of ALK2 (WT) GS and kinase domain (Q04771 172-499): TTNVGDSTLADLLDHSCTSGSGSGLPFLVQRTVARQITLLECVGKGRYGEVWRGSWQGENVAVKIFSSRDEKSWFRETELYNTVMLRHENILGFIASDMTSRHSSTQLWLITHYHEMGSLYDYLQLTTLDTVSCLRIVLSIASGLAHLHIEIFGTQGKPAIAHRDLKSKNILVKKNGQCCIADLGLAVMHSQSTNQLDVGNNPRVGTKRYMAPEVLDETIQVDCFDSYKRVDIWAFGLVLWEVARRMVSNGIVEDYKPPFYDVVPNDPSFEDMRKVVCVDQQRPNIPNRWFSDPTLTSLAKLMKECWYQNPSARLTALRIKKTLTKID
T1 sequence (P36894 234-525 limits assumed): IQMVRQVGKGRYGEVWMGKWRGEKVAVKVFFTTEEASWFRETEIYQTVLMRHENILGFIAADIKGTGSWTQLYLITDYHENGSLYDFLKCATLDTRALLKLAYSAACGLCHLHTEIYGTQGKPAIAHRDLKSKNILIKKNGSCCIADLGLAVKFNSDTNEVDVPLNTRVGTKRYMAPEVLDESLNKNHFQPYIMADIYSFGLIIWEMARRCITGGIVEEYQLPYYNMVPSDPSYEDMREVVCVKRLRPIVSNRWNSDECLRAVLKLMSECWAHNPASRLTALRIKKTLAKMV
Chain of RIPK2 (O43353 whole entry, the tested form may be a part): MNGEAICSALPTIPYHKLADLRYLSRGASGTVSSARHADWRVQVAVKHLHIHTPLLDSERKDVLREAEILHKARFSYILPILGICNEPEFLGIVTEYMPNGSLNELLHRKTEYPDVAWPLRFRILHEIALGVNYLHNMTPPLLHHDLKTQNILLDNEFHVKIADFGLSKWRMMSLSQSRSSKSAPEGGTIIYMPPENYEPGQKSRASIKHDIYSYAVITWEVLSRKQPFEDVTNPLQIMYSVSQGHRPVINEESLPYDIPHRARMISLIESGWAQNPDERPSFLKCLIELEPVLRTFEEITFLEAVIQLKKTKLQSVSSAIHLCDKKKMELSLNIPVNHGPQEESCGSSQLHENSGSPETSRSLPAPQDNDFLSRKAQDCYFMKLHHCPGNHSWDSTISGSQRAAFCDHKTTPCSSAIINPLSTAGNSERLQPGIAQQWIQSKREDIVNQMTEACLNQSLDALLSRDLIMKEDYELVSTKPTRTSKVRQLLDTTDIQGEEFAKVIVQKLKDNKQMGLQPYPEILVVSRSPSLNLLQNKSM
T4 sequence (P36896 207-497 limits assumed): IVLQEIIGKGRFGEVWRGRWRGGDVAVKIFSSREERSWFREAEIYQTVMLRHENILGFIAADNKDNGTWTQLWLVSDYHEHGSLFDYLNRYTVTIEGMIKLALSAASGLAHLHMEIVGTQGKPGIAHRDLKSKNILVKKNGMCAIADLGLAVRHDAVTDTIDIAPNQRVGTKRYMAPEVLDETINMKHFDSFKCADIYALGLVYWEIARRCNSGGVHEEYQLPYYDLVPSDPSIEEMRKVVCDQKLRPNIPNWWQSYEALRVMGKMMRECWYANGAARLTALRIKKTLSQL
T5 sequence (P36897 205-495 limits assumed): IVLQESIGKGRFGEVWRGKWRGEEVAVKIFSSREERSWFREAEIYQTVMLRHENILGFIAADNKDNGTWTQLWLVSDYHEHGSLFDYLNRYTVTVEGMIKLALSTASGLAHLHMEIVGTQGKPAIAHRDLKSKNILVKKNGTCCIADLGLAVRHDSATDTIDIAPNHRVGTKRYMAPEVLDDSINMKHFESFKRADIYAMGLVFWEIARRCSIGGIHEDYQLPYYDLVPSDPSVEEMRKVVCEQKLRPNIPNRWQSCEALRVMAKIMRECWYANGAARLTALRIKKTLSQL
T2 sequence (O00238 204-494 limits assumed): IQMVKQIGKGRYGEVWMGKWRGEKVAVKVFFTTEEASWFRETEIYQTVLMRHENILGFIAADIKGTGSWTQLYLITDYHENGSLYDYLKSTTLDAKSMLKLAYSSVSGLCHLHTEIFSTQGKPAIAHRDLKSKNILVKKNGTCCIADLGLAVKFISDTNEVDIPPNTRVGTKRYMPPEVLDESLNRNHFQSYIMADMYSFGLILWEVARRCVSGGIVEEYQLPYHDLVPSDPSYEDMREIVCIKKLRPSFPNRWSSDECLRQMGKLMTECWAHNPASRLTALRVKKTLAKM
Chain of TNIK (Q9UKE5 whole entry): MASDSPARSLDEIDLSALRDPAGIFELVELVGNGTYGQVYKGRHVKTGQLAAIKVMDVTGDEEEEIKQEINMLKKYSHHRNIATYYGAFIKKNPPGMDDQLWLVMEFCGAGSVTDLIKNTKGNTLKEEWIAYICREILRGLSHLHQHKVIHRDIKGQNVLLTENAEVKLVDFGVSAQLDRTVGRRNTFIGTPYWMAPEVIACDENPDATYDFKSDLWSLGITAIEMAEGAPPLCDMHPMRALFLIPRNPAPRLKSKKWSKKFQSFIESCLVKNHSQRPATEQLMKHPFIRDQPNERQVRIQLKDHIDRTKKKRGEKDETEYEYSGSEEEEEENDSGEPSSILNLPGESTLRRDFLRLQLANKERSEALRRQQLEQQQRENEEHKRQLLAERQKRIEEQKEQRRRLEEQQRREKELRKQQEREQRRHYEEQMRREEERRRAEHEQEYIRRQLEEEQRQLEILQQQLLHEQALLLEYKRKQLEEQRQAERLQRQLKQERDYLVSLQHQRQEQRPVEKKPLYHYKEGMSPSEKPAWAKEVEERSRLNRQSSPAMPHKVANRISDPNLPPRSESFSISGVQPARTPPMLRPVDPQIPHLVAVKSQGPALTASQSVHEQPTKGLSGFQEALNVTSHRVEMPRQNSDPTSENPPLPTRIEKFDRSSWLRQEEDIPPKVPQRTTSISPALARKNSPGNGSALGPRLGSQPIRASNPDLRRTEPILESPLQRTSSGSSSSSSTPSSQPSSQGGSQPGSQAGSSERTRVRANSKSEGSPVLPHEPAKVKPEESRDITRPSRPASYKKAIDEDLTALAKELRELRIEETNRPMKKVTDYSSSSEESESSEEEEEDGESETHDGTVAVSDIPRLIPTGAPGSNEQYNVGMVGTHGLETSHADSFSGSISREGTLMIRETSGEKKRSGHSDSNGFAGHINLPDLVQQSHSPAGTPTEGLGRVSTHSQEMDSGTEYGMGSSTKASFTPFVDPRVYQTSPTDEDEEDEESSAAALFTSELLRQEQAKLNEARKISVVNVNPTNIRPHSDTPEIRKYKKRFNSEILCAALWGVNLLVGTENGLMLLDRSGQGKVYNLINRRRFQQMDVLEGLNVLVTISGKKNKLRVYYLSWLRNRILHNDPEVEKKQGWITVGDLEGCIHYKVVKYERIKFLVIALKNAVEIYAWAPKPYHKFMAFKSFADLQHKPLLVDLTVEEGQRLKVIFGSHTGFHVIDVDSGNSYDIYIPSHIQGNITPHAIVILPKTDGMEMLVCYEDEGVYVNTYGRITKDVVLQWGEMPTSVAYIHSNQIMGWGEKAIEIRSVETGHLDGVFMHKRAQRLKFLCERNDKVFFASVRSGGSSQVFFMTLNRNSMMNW
T3 sequence (P37023 202-492 limits assumed): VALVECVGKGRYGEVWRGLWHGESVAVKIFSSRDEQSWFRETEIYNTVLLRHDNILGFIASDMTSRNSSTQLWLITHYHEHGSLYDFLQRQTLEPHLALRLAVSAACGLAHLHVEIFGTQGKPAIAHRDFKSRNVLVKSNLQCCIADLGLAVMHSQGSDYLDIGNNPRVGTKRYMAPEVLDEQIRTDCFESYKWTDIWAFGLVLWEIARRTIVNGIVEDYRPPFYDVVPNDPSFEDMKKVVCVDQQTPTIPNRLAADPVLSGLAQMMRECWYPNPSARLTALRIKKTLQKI

- ΔTm (thermal shift) ([1]; ALK2 WT, 2 μM protein, 12.5 μM compound): 10.7 °C
Compound: COc1cc(N2CCC(N3CCN(C)CC3)CC2)ccc1Nc1ncnc(Nc2ccccc2S(=O)(=O)C(C)C)n1 [ASP3026]

Compound: c1ccc2c(-c3cnn4cc(-c5ccc(N6CCNCC6)cc5)cnc34)ccnc2c1 [LDN-193189]
- mobility (passive range of motion) [2]: almost entirely preserved

Compound: c1cc(-c2cnn3cc(-c4ccc(N5CCNCC5)cc4)cnc23)c2cccnc2c1 [LDN-212854]
- weight loss relative to vehicle-treated animals ([2]; 6 mg/kg i.p. twice daily): 10%–25%
- mobility (passive range of motion) [2]: almost entirely preserved

Compound: CN1CCN(CCOc2cc(OC3CCOCC3)c3c(Nc4c(Cl)ccc5c4OCO5)ncnc3c2)CC1 [saracatinib]
- IC50 [3]: 621 nM
- inhibition at 0.1 µM (LYN): > 50%
- inhibitor concentration at which TGF-β–dependent phosphorylation of SMAD2 was blocked [4]: 5 µM
- IC50 [5]: 6130 nM
- inhibition at 0.1 µM (HCK): > 50%
- cyclopia or mesoderm specification phenotypes (zebrafish embryos): no evidence of cyclopia or phenotypes suggesting inhibition of mesoderm specification
- dorsalization phenotype (zebrafish embryos): dorsalized phenotype that increased in severity in a dose-dependent manner
- IC50 (activin A signaling): 72 nM
- IC50 (BMP2 signaling): 61 nM
- IC50 (BMP6 signaling): 8.9 nM
- IC50 (BMP7 signaling): 5.5 nM
- IC50 (BMP4 signaling): 131 nM
- inhibition at 0.1 µM (RIPK2): > 50%
- IC50 [6]: 19 nM
- IC50 [7]: 3900 nM
- IC50 [8]: 6890 nM
- t1/2 [9]: approximately 40 hours
- primary side effect ([9]; doses up to 125 mg daily for 9–12 months, phase II): gastrointestinal discomfort
- daily dose up to which safe ([9]; healthy volunteers): ≤ 250 mg
- adverse effects associated with higher doses ([9]; previous oncology trials, higher doses): neutropenia and thrombocytopenia
- concentration up to which well tolerated (HEK293 cells): approximately 40 μM
- concentration up to which well tolerated (C2C12 cells): approximately 40 μM
- BMP7-induced phosphorylation of SMAD1/5 [10]: completely inhibited
- IC50 (TGF-β signaling): 305 nM
- inhibition at 0.1 µM (TNIK): > 50%
- inhibition at 0.1 µM (ARG (ABL2)): > 50%

Compound: COc1cc2c(Nc3ccc(Br)cc3F)ncnc2cc1OCC1CCN(C)CC1 [vandetanib]
- HO formation / range of motion ([2]; 25 mg/kg i.p. twice daily for 28 days): no evidence of improvement in radiographic HO or range-of motion; also recorded: did not block HO formation
- binding to ALK2 (in words) ([1]; Supplemental Figure 1C): does not show any notable binding to ALK2
